“And” between values parts separate entries of the source, which are not always exact repeats. Equal values may be shown once. “Also recorded” adds a separate entry of the source.
Experiments:
Assay type in all cases: cell-based, human
[1] = tested on: Vα24^+ NKT cells from G-PBSCs; experiment: Expansion of Vα24+ NKT cells from G-PBSCs by α-GalCer (flow cytometry); conditions: IL-2 and α-GalCer (FIG. 5)
[2] = tested on: Vα24^+ NKT cells from G-PBSCs; experiment: as above
Protocol: (§1) Buffy coat (crude PBMCs), prepared from 400 ml of whole blood drawn from a healthy person, was supplied by the Japanese Red Cross Blood Center. A cell fraction containing PBSCs (crude G-PBSCs) was obtained from patients undergone chemotherapy followed by a dose of 100 to 250 μg/body/day G-CSF subcutaneously for 6 to 10 days (Table 1) by performing apheresis between 2 and 24 hours after the last injection of G-CSF with COBE Spectra™ Cell Separator (LAKE WOOD, Colo. USA 80215) (Hematopoietic Stem Cells: Biology and Therapeutic Applications. Levit DJ, Mertelsmann R(eds), Marcel Dekker, Inc., New York, 1995, 611-630).
(§2) From the obtained crude PBMCs and crude G-PBSCs, mononuclear cell fractions (referred to as “PBMCs” and “G-PBSCs”, respectively) were prepared using Lympho-sepal density-gradient medium (Immuno-Biological Laboratories Gunma, Japan).
(§3) PBMCs and G-PBSCs obtained in (1) were cultured with RPMI-1640 supplemented with 2 mM L-glutamine, 1% pyruvate, 2% bicarbonate, 100 U/ml penicillin, 100 U/ml streptomycin (GIBCO BRL) in the presence of 100 U/ml IL-2 and 100 ng/ml of α-GlyCer. Cells were incubated in a water-vapor-saturated atmosphere containing 5% CO2 gas at 37° C. The cell number and characteristics of these cultured cells were examined on day 0 (d0) and day 12 (d12). As α-GlyCer, (2S,3S,4R)-1-O-(α-D-galactopyranosyl)-N-hexacosanoyl-2-amino-1,3,4-octadecanetriol; referred to as “α-GalCer”) prepared by Kirin Beer Kabushiki Kaisha was used.
(§4) Flow cytometry of the cultured cells was performed using a FACScan cytometer (Becton Dickinson, Sunyvale, Calif.) as follows. Fluorescein isothiocynate (FITC)-conjugated anti-Vα24 (C15), phycoerythrin (PE)-conjugated anti-Vβ11(C21), PE-conjugated anti-CD3, PE-conjugated anti-CD56, PE-conjugated anti-DC83 and PE-conjugated anti-CD8 were obtained from Immunotech (Marseilelles Cedex, France). FITC-conjugated PE-conjugated anti-CD161, PE-conjugated anti-IL-2Rβ, PE-conjugated anti-HLA-DR and PE-conjugated anti-CD4 were obtained from Becton Dickinson. PE-conjugated anti-CD86 was obtained from Pharmingen (San Diego, Calif.). PE-conjugated anti-CD57 was obtained from SIGMA (Saint Louis, Mo.) and used as iso-type controls. Cultured cells were harvested and resuspended in 10% fetal calf serum (FCS)-RPMI1620 medium at a density of 1×10^5/ml. After centrifugation for 3 min at 2000 rpm using MRX-150 high speed refrigerated micro centrifuges (TOMY SEIKO CO., LTD. Tokyo, Japan), the cells were resuspended in 50 μl of PBS containing 1 μl of antibodies described above and incubated for 30 min at 4° C. The cells were then washed twice with PBS, resuspended in PBS and stored at 4° C. until analysis. Data are shown as FSC, SSC, FL-1 indicating Vα24 or CD4, and FL-2 indicating Vβ11, CD8, CD3.

[3] = tested on: Vα24^+ NKT cells from PBMCs; experiment: Expansion of Vα24+ NKT cells from normal PBMCs by α-GalCer (flow cytometry)
Protocol: as §1, §2, §3, §4

[4] = G-PBSCs of cancer patients, 100 ng/ml α-GalCer + 100 U/ml IL-2, day 12, one line per patient (No. 6-10)
[5] = normal PBMCs, 100 ng/ml α-GalCer + 100 U/ml IL-2, day 12, one line per donor (No. 1-5)

In the case of `CCCCCCCCCCCCCCCCCCCCCCCCCC(=O)N[C@@H](CO[C@H]1O[C@H](CO)[C@H](O)[C@H](O)[C@H]1O)[C@H](O)[C@H](O)CCCCCCCCCCCCCC` [α-GalCer, (2S,3S,4R)-1-O-(α-D-galactopyranosyl)-N-hexacosanoyl-2-amino-1,3,4-octadecanetriol], the “course of number of Vα24+ NKT cells after day 12” value [1] is reported as “continue to expand up to day 30 of culture”, the “D12 NKT % α-GalCer (+)” value [2, 4] is reported as 2.05% and 8.49% and 4.73% and 3.21% and 22.6% and the “D12 NKT (cell number) α-GalCer (+)” value [2, 4] is reported as “(51660); also recorded: (314130); also recorded: (520300); also recorded: (64200); also recorded: (1414375)”. For the same molecule, the “α-GalCer (+)/(−)” value ([2]; G-PBSCs, day 12, with vs without α-GalCer, one line per patient (No. 6-10)) was 205.0 and 196.9 and 101.6 and 114.6 and 673.5, the d12/d0 ([2]; G-PBSCs, with α-GalCer, day 12 vs day 0, one line per patient (No. 6-10)) was 34.4 and 314.1 and 104.1 and 32.1 and 1414.4 and the “amplification in G-PBSCs relative to PBMCs” value ([2]; day 12, IL-2 and α-GalCer) was “at least 10 fold”. The “course of number of Vα24+ NKT cells after day 12” value ([3]; PBMCs, IL-2 and α-GalCer (FIG. 5)) was “gradually decrease after day 12”, the “D12 NKT % α-GalCer (+)” value [3, 5] was 0.18% and 6.58% and 0.19% and 0.3% and 0.66% and the “D12 NKT (cell number) α-GalCer (+)” value [3, 5] was 2376 and 24346 and 9500 and 18300 and 20328. For the same molecule, the “α-GalCer (+)/(−)” value ([3]; normal PBMCs, day 12, with vs without α-GalCer, one line per donor (No. 1-5)) was 2.2 and 15.5 and 1.0 and 4.1 and 4.5 and the d12/d0 ([3]; normal PBMCs, with α-GalCer, day 12 vs day 0, one line per donor (No. 1-5)) was 1.6 and 4.1 (2×) and 1.4 and 6.1.

Reference: patent US20040009594A1, “Method for amplifying natural killer t cells” (priority 2000, published 2004)
